Data as given in BindingDB's records for patent US20250154134 (Wigen Biomedicine Technology (Shanghai), 2025).

The compounds below were run against Focal adhesion kinase 1 (Homo sapiens, UniProt Q05397) (assay: Inhibitory Activity Assay).
Description: A compound serially diluted with DMSO was mixed with a FAK recombinant protein. After the mixture was left to stand at room temperature for 10 min, a biotin-labeled TK substrate (TK) and ATP were added. […] The inhibition percentage and IC50 of the compound were calculated compared to the DMSO control group.

Focal adhesion kinase 1, sequence (Q05397 whole entry): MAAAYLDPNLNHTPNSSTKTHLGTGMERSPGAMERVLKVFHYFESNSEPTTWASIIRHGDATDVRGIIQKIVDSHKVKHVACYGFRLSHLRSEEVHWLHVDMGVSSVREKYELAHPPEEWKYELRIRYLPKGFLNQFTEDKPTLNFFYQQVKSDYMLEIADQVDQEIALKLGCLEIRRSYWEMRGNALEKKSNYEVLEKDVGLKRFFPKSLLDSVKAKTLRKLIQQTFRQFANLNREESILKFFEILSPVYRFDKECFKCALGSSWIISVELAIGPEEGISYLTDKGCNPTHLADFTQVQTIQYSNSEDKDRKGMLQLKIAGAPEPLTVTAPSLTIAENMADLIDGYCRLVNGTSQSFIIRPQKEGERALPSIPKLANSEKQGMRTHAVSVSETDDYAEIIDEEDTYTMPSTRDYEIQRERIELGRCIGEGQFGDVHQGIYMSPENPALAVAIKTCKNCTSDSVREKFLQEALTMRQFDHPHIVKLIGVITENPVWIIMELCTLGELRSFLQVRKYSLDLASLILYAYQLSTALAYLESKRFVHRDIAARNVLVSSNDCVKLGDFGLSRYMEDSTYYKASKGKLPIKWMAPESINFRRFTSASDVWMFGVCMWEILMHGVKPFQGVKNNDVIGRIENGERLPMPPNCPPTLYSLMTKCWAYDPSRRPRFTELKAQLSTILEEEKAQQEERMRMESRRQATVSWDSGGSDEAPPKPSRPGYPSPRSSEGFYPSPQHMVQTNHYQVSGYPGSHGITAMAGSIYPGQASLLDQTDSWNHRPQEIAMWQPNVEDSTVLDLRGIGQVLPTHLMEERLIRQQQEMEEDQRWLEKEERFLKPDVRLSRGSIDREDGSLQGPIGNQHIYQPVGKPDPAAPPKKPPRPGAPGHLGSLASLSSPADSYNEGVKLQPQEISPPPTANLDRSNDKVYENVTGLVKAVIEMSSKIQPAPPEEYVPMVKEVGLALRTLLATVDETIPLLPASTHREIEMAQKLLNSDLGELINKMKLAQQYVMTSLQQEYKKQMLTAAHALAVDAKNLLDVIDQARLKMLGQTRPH

IC50, < 0.02 µM:
COc1cc(C(=O)NC2CCN(C)CC2)ccc1Nc1ncc(C(F)(F)F)c(Oc2cccc3c2C(=O)N(C)C32CC2)n1 [US20250154134, Compound 3]
COc1cc(C(=O)NC2CCNCC2)ccc1Nc1ncc(C(F)(F)F)c(Oc2cccc3c2C(=O)N(C)C32CC2)n1 [US20250154134, Compound 35]
COc1cc(C(=O)NC2(C)CCN(C)CC2)ccc1Nc1ncc(Cl)c(Oc2cccc3c2C(=O)N(C)C32CC2)n1 [US20250154134, Compound 118]
COc1cc(C(=O)NC2CCN(C)CC2)c(F)cc1Nc1ncc(Cl)c(Oc2cccc3c2C(=O)N(C)C32CCCC2)n1 [US20250154134, Compound 209]
